Our source for the melting point values is a melting point compilation (Tetko et al.; mined from patent text by program, amines drawn as free bases though some values may be those of a salt).

Bounds are passed on as bounds.

As a reminder, the melting point is the temperature, or range, at which the solid turns liquid. `CNc1cc(Oc2cccc(C(F)(F)F)c2)nc(C(=O)Nc2ccccc2)c1` returned a melting point of 158 to 160 °C.

`O=C(O)CCCCCc1nn(-c2ccccc2)c2c1CCCC2` yielded a melting point of 95 to 97 °C.

In the case of `CC(C)Cc1nc[nH]n1`, the melting point is 71 to 73 °C.

As for `CC(C)N(CCN1C(=O)C(=O)c2ccccc21)C(C)C`, the melting point was 60 to 61 °C.

Compound `CCCCNC(=O)Cc1ccc(O)c(C2CCCCC2)c1` registered a melting point of 118 to 120 °C.

As for `CCOCCn1cc2c(C3C(=O)Nc4ccc(Cl)cc43)nc(NCCN3CCOCC3)nc2n1` (stereo unspecified), the melting point fell in the range of 293 to 294 °C.

Take `CCOC(=O)C1=C(N)NC(N)=C(C(=O)OCC)C1c1cccc(C#N)c1`: the melting point was 176 °C.

Take `COC(=O)CCCc1nc(Cl)c2c(n1)[nH]c1ccccc12`: the melting point was found to be 258 °C.

`CC1CCC(=Nc2ccccc2)N1Cc1c[nH]c2ccccc12` (stereo unspecified) showed a melting point of 88 to 92 °C.

`CCCc1ccc(NC(=O)c2ccccc2NCc2ccncc2)cc1C(F)(F)F` had a melting point of 134 to 135 °C.

`COc1ccc(CN(CCCNc2nccc(=O)[nH]2)c2ccccn2)cc1` yielded a melting point of 63 to 80 °C.

In the case of `CCOC(=O)c1csc(C)c1S(=O)(=O)NC(=O)n1nc(OC)n(C)c1=O`, the melting point came out at 176 °C.

The compound `CCCc1c(OCCCCCCc2cc(OC)c(OC)cc2F)ccc(C(=O)O)c1O` showed a melting point of 127 to 130 °C.

Turning to `CC(C)(C)OC(=O)N(CC=Cc1ccccc1)S(N)(=O)=O`, the melting point was found to be 118 °C.

`CON=Cc1ccc(-c2ccccc2NC(=O)c2c(C)nn(C)c2F)cc1` registered a melting point of 114 to 116 °C.

The compound `CCCCc1nn(-c2cc(N)ccc2Br)c(=O)n1Cc1ccc(-c2ccccc2S(=O)(=O)NC(C)(C)C)cc1F` gave a melting point of 103 to 105 °C.

`COC(=O)c1ccc(C)c(-n2c(C)cc(OCc3ccccc3CNC(=O)Nc3cc(C(C)(C)C)nn3-c3ccc(Cl)c(O)c3)c(Cl)c2=O)c1` returned a melting point of 193 to 195 °C.

For `CC(C)[C@H](O)CP(=O)(O)CCCN`, the melting point is 187 to 189 °C.

Consider `O=S(=O)(CC(F)(F)F)NC(c1ccc(Cl)c2nc3n(c12)CCCN3c1c(Cl)cc(Cl)cc1Cl)C(F)(F)F` (stereo unspecified), for which the melting point fell in the range of 237 to 239 °C.

Turning to `Cc1ccc(C(=O)N2CCC(CCN3C(=O)CCc4c(CC5SC(=O)NC5=O)cccc43)CC2)cc1` (stereo unspecified), the melting point is 60 to 65 °C.

Take `CS(=O)c1ccc(-c2nn(Cc3ccc(F)cc3)c(=O)cc2-c2ccc(F)cc2)cc1` (stereo unspecified): the melting point was found to be 198 °C.

Regarding `COc1cccc(CCN2C(=O)c3cc(Cl)c(Cl)cc3C2(O)c2ccc(F)cc2)c1` (stereo unspecified), the melting point came to 169 °C.

`COc1ccc(CNC(=O)c2nccnc2N)cc1` came in with a melting point of 93 to 95 °C.

`CCCN(c1nc(-c2ccc(Cl)cc2Cl)c(C=O)s1)C(C)c1ccncc1` (stereo unspecified): the melting point worked out at 114 °C.

The compound `c1cc2c(s1)CNCCS2` displayed a melting point of 138 to 139 °C.

Compound `CCCCN1Cc2c([nH]c3ccccc23)C1=O` came in with a melting point of 215 to 218 °C.

The compound `Cc1c(C(=O)Nc2ccc(N3CCN(C4CCOCC4)CC3)c(C#N)c2)cnn1-c1ccc(C(F)(F)F)cc1` gave a melting point of 274 °C.

Take `CCc1ccc(Cc2c(O)nn(C(C)C)c2C)cc1`: the melting point fell in the range of 164 to 169 °C.

Regarding `CCN(CC)c1c(OC)cccc1C(=O)O`, the melting point lay within 68 to 71 °C.

`COc1ccc(C(=O)C(=O)c2ccc(OC(F)F)cc2)cc1C#N` registered a melting point of 150 to 155 °C.

As to `ClCc1cccc2cc(Br)ccc12`, the melting point fell in the range of 73 to 76 °C.

Regarding `CCOC(=O)CCc1cc(C(=O)c2ccc(C(=O)OCC)cc2)ccc1OCCCCCBr`, the melting point lay in the range of 76.5 to 78 °C.

In turn, `Cc1c(C=C(C#N)C#N)cc(C(C)(C)C)c(O)c1Br` returned a melting point of 144 °C.

In the case of `CCCCC(=O)Nc1ccc(Cl)c(-n2nc(CCCC)c(Cc3ccc(-c4ccccc4S(=O)(=O)NC(=O)c4ccccc4Cl)cc3F)c2C#N)c1`, the melting point was > 95 °C.

For `O=C(CN1CCC(Cc2ccc(F)cc2)CC1)Nc1ccc2[nH]c(=O)oc2c1`, the melting point is 228 to 231 °C.

Regarding `CCc1nc(C)c(/C=C(\NC(=O)c2ccc(C(=O)NCc3cccc(O)c3)cc2Cl)C(=O)O)s1`, the melting point is > 200 °C.

For `CN(C)CCSc1c2ccccc2c(-c2cc(Br)c(O[C@H](Cc3ccccc3)C(=O)O)c(Br)c2)c2c1sc1ccccc12`, the melting point lay in the range of 169 to 174 °C.

`CCCCC[C@H]1CC[C@H](c2ccc(NC(=O)OC)cc2)CC1` came in with a melting point of 105 to 110 °C.

The compound `COc1ccc(NN=C(Sc2ccc(F)cc2)C(C)=O)cc1` yielded a melting point of 135 to 137 °C.

For the compound `Nc1c(C(F)(F)F)cc(Cl)c2[nH]c(=O)c(=O)[nH]c12`, the melting point is > 360 °C.

`OC1(c2cccn2Cc2ccccc2F)CCN(CCc2ccc(Cl)cc2)CC1` registered a melting point of 108 to 109 °C.

Regarding `Cc1ncnn1-c1cc(F)ccc1CNC(=O)c1nc2n(c(=O)c1O)CCN2C(C)C`, the melting point is 212 °C.

Consider `CC(C(O)CCC(C)(C)C)C1CCC2C3CC=C4CC(O)CCC4(C)C3CCC12C` (stereo unspecified), for which the melting point was in the range of 191 to 193 °C.

`Cc1[nH]c2ccc(F)cc2c1C(=O)Nc1ccc(OCC(C)(C)C)c(C#N)c1` showed a melting point of 169 to 171 °C.

In turn, `CC(C)Cn1c(=O)n(C)c(=O)c2c(Sc3nnc[nH]3)c(Cc3csc4ccccc34)sc21` yielded a melting point of 237 to 238 °C.

Compound `O=C(O)C1=Cc2cc(C#Cc3ccccc3)ccc2OC1C(F)(F)F` (stereo unspecified) returned a melting point of 240 to 241 °C.

`CC(C)C[C@H](CC(=O)OC(C)(C)C)C(=O)N1C(=O)OC[C@@H]1C(C)C` registered a melting point of 143 to 144 °C.

For `Cc1cc(C(=O)Nc2ccc(S(=O)(=O)C(F)(F)F)cc2Cl)c(O)c(C23CC4CC(CC(C4)C2)C3)c1`, the melting point was 203 to 204 °C.

For `O=C(NC1CCOCC1)c1cccc(-c2cccc3cc(Cc4cc(F)cc(Cl)c4)sc23)c1`, the melting point lay within 127 to 128 °C.

Turning to `Cc1c(Br)cccc1NCc1c(C(=O)O)sc2ccccc12`, the melting point was in the range of 120 to 121 °C.

Consider `O=C(OCCCl)C(O)c1ccccc1` (stereo unspecified), for which the melting point fell in the range of 43 to 45 °C.

The compound `O=C(O)CCCCCCCCC=Cc1cccs1` had a melting point of 61 to 62 °C.

Consider `COc1ccc(S(=O)(=O)N(Cc2cccnc2)c2c(C)cc(-c3cccs3)cc2C(=O)O)cc1`, for which the melting point turned out to be 191 °C.

For the compound `COC(=O)C(=O)CC(=O)c1ccc(Cl)cc1`, the melting point lay in the range of 108 to 110 °C.

The compound `CC(C)(C)c1cc(C2=CCCCCC2)c(O)c(C(C)(C)C)c1` displayed a melting point of 78 to 80 °C.

`Cc1cccc(C)c1N(CCCC(=O)NCCCC(=O)O)C(=O)c1ccc(Cl)cc1` gave a melting point of 141 to 142 °C.

Consider `CS(=O)(=O)c1ccc(-c2cc(-c3nc4ccccc4c(=O)n3-c3ccccc3)sc2N2CCOCC2)cc1`, for which the melting point is > 275 °C.

In the case of `O=C(O)C[C@H]1CC[C@H](Sc2nc(C3OCCO3)n(Cc3cc4c(cc3Cl)OCO4)c2C(=O)O)CC1`, the melting point was 145 °C.

In turn, `CN(c1nnc(C(F)(F)F)s1)C1CCN(Cc2ccc(F)cc2)CC1` registered a melting point of 85.8 °C.

`CNC(=O)CCCC1CCN(Cc2cnc3c(C)c(NC(=O)c4ccc(-c5ccc(F)cc5)cc4)ccc3c2)CC1` showed a melting point of 210 to 212 °C.

In the case of `COc1c(C(O)CNC(C)(C)Cc2c(C)c(C)cc(C)c2C)ccc(O)c1O` (stereo unspecified), the melting point was 165 to 168 °C.
